# From PubChem BioAssay (NCI)
#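 Interpolation was linear, between the two tested concentrations surrounding the appropriate level; five concentrations were tested over 48 hours in 96-well plates. The concentration for full growth arrest is given as TGI.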
# Legend:
# Test in all cases: DTP human tumour cell line panel, 48 h
# MCF7 breast = system: MCF7 breast
# OVCAR-8 ovarian = system: OVCAR-8 ovarian
# IGROV1 ovarian = system: IGROV1 ovarian
# CCRF-CEM leukemia = system: CCRF-CEM leukemia
# SF-268 CNS = system: SF-268 CNS
# UACC-62 melanoma = system: UACC-62 melanoma
# SF-539 CNS = system: SF-539 CNS
# SF-295 CNS = system: SF-295 CNS
# NCI-H23 lung = system: NCI-H23 lung
# UACC-257 melanoma = system: UACC-257 melanoma
# MDA-MB-231 breast = system: MDA-MB-231 breast
# OVCAR-5 ovarian = system: OVCAR-5 ovarian
# OVCAR-4 ovarian = system: OVCAR-4 ovarian
# SNB-75 CNS = system: SNB-75 CNS
# T-47D breast = system: T-47D breast
# SK-OV-3 ovarian = system: SK-OV-3 ovarian
# SK-MEL-5 melanoma = system: SK-MEL-5 melanoma
# RPMI-8226 leukemia = system: RPMI-8226 leukemia
# HOP-92 NSCLC = system: HOP-92 NSCLC
# SK-MEL-2 melanoma = system: SK-MEL-2 melanoma
# HOP-62 NSCLC = system: HOP-62 NSCLC
# CAKI-1 renal = system: CAKI-1 renal
# RXF 393 renal = system: RXF 393 renal
# DU-145 prostate = system: DU-145 prostate
# U251 CNS = system: U251 CNS
# HS 578T breast = system: HS 578T breast
# SN12C renal = system: SN12C renal
# HL-60(TB) leukemia = system: HL-60(TB) leukemia
# HCC-2998 colon = system: HCC-2998 colon
# UO-31 renal = system: UO-31 renal
# 786-0 renal = system: 786-0 renal
# NCI/ADR-RES ovarian = system: NCI/ADR-RES ovarian
# MOLT-4 leukemia = system: MOLT-4 leukemia
# KM12 colon = system: KM12 colon
# MDA-MB-435 = system: MDA-MB-435
# A549 NSCLC = system: A549 NSCLC
# A498 renal = system: A498 renal
# MDA-N = system: MDA-N
# HT29 colon = system: HT29 colon
# HCT-15 colon = system: HCT-15 colon
# NCI-H460 lung = system: NCI-H460 lung
# ACHN renal = system: ACHN renal
# M14 melanoma = system: M14 melanoma
# TK-10 renal = system: TK-10 renal
# PC-3 prostate = system: PC-3 prostate
# HCT-116 colon = system: HCT-116 colon
# SW-620 colon = system: SW-620 colon
# SNB-19 CNS = system: SNB-19 CNS
# K-562 leukemia = system: K-562 leukemia
# LOX IMVI melanoma = system: LOX IMVI melanoma
# EKVX NSCLC = system: EKVX NSCLC
# NCI-H522 lung = system: NCI-H522 lung
# NCI-H226 lung = system: NCI-H226 lung
# COLO 205 colon = system: COLO 205 colon
# BT-549 breast = system: BT-549 breast
# OVCAR-3 ovarian = system: OVCAR-3 ovarian
# SR leukemia = system: SR leukemia
# MALME-3M melanoma = system: MALME-3M melanoma
# SK-MEL-28 melanoma = system: SK-MEL-28 melanoma
structure (smiles),measurement,setting,value
CCOC(=O)Cc1csc(N=Nc2c(O)[nH]c3ccccc23)n1,TGI,MCF7 breast,> 100 µM
same,TGI,OVCAR-8 ovarian,> 100 µM
same,TGI,IGROV1 ovarian,> 100 µM
same,TGI,CCRF-CEM leukemia,83.3 µM
same,TGI,SF-268 CNS,> 100 µM
same,TGI,UACC-62 melanoma,> 100 µM
same,TGI,SF-539 CNS,> 100 µM
same,TGI,SF-295 CNS,> 100 µM
same,TGI,NCI-H23 lung,> 100 µM
same,TGI,UACC-257 melanoma,> 100 µM
same,TGI,MDA-MB-231 breast,> 100 µM
same,TGI,OVCAR-5 ovarian,> 100 µM
same,TGI,OVCAR-4 ovarian,> 100 µM
same,TGI,SNB-75 CNS,96.6 µM
same,TGI,T-47D breast,> 100 µM
same,TGI,SK-OV-3 ovarian,> 100 µM
same,TGI,SK-MEL-5 melanoma,69.9 µM
same,TGI,RPMI-8226 leukemia,> 100 µM
same,TGI,HOP-92 NSCLC,> 100 µM
same,TGI,SK-MEL-2 melanoma,> 100 µM
same,TGI,HOP-62 NSCLC,> 100 µM
same,TGI,CAKI-1 renal,> 100 µM
same,TGI,RXF 393 renal,> 100 µM
same,TGI,DU-145 prostate,> 100 µM
same,TGI,U251 CNS,> 100 µM
same,TGI,HS 578T breast,> 100 µM
same,TGI,SN12C renal,> 100 µM
same,TGI,HL-60(TB) leukemia,50.7 µM
same,TGI,HCC-2998 colon,> 100 µM
same,TGI,UO-31 renal,> 100 µM
same,TGI,786-0 renal,> 100 µM
same,TGI,NCI/ADR-RES ovarian,> 100 µM
same,TGI,MOLT-4 leukemia,73.1 µM
same,TGI,KM12 colon,> 100 µM
same,TGI,MDA-MB-435,> 100 µM
same,TGI,A549 NSCLC,> 100 µM
same,TGI,A498 renal,> 100 µM
same,TGI,MDA-N,> 100 µM
same,TGI,HT29 colon,> 100 µM
same,TGI,HCT-15 colon,> 100 µM
same,TGI,NCI-H460 lung,> 100 µM
same,TGI,ACHN renal,> 100 µM
same,TGI,M14 melanoma,> 100 µM
same,TGI,TK-10 renal,> 100 µM
same,TGI,PC-3 prostate,> 100 µM
same,TGI,HCT-116 colon,> 100 µM
same,TGI,SW-620 colon,> 100 µM
same,TGI,SNB-19 CNS,> 100 µM
same,TGI,K-562 leukemia,> 100 µM
same,TGI,LOX IMVI melanoma,> 100 µM
same,TGI,EKVX NSCLC,> 100 µM
same,TGI,NCI-H522 lung,93.5 µM
same,TGI,NCI-H226 lung,> 100 µM
same,TGI,COLO 205 colon,> 100 µM
same,TGI,BT-549 breast,> 100 µM
same,TGI,OVCAR-3 ovarian,> 100 µM
Nn1c(Sc2nc3ccccc3c(=O)n2N)nc2ccccc2c1=O,TGI,MCF7 breast,27.4 µM
same,TGI,OVCAR-8 ovarian,11.1 µM
same,TGI,IGROV1 ovarian,23.3 µM
same,TGI,CCRF-CEM leukemia,4.51 µM
same,TGI,SF-268 CNS,22.3 µM
same,TGI,UACC-62 melanoma,25.6 µM
same,TGI,SF-539 CNS,6.24 µM
same,TGI,SR leukemia,5.1 µM
same,TGI,SF-295 CNS,42.1 µM
same,TGI,NCI-H23 lung,5.43 µM
same,TGI,UACC-257 melanoma,38.1 µM
same,TGI,MDA-MB-231 breast,24.4 µM
same,TGI,OVCAR-5 ovarian,40.6 µM
same,TGI,OVCAR-4 ovarian,> 100 µM
same,TGI,SNB-75 CNS,34.8 µM
same,TGI,MALME-3M melanoma,12.8 µM
same,TGI,T-47D breast,> 51.8 µM
same,TGI,SK-OV-3 ovarian,54.6 µM
same,TGI,SK-MEL-5 melanoma,11.5 µM
same,TGI,RPMI-8226 leukemia,11.5 µM
same,TGI,HOP-92 NSCLC,29.3 µM
same,TGI,SK-MEL-2 melanoma,14.3 µM
same,TGI,HOP-62 NSCLC,35.9 µM
same,TGI,CAKI-1 renal,20.3 µM
same,TGI,RXF 393 renal,25.1 µM
same,TGI,DU-145 prostate,56.8 µM
same,TGI,U251 CNS,20 µM
same,TGI,HS 578T breast,> 53.7 µM
same,TGI,SN12C renal,18.8 µM
same,TGI,HCC-2998 colon,30.7 µM
same,TGI,SK-MEL-28 melanoma,13.1 µM
same,TGI,UO-31 renal,3.26 µM
same,TGI,786-0 renal,18.6 µM
same,TGI,NCI/ADR-RES ovarian,28.4 µM
same,TGI,MOLT-4 leukemia,3.69 µM
same,TGI,KM12 colon,> 62.3 µM
same,TGI,MDA-MB-435,> 49.5 µM
same,TGI,A549 NSCLC,39 µM
same,TGI,A498 renal,36.5 µM
same,TGI,MDA-N,15.5 µM
same,TGI,HT29 colon,14.3 µM
same,TGI,HCT-15 colon,16.5 µM
same,TGI,NCI-H460 lung,51.7 µM
same,TGI,ACHN renal,26.4 µM
same,TGI,M14 melanoma,4.02 µM
same,TGI,TK-10 renal,42.2 µM
same,TGI,PC-3 prostate,28.4 µM
same,TGI,HCT-116 colon,12.6 µM
same,TGI,SW-620 colon,7.13 µM
same,TGI,SNB-19 CNS,24.6 µM
same,TGI,K-562 leukemia,> 100 µM
same,TGI,LOX IMVI melanoma,4.25 µM
same,TGI,EKVX NSCLC,38.9 µM
same,TGI,NCI-H522 lung,3.57 µM
same,TGI,NCI-H226 lung,5.5 µM
same,TGI,COLO 205 colon,28.8 µM
same,TGI,BT-549 breast,6.38 µM
same,TGI,OVCAR-3 ovarian,40.3 µM
COc1ccc2c(c1)C(=O)C1CCC(=O)N1C2c1ccc2c(c1)OCO2 (stereo not given),TGI,OVCAR-8 ovarian,44.2 µM
same,TGI,IGROV1 ovarian,32.5 µM
same,TGI,CCRF-CEM leukemia,13.3 µM
same,TGI,SF-268 CNS,53.3 µM
same,TGI,UACC-62 melanoma,29.9 µM
same,TGI,SF-539 CNS,42.7 µM
same,TGI,SR leukemia,> 100 µM
same,TGI,SF-295 CNS,36.3 µM
same,TGI,NCI-H23 lung,39.8 µM
same,TGI,UACC-257 melanoma,40.4 µM
same,TGI,MDA-MB-231 breast,54.6 µM
same,TGI,OVCAR-5 ovarian,28.1 µM
same,TGI,OVCAR-4 ovarian,47.9 µM
same,TGI,SNB-75 CNS,36.5 µM
same,TGI,MALME-3M melanoma,15.9 µM
same,TGI,T-47D breast,48.5 µM
same,TGI,SK-OV-3 ovarian,63.1 µM
same,TGI,SK-MEL-5 melanoma,24.9 µM
same,TGI,RPMI-8226 leukemia,12.9 µM
same,TGI,SK-MEL-2 melanoma,41.6 µM
same,TGI,HOP-62 NSCLC,42.8 µM
same,TGI,CAKI-1 renal,71.8 µM
same,TGI,DU-145 prostate,33.4 µM
same,TGI,U251 CNS,31.5 µM
same,TGI,HS 578T breast,88.1 µM
same,TGI,SN12C renal,24.4 µM
same,TGI,HL-60(TB) leukemia,42.4 µM
same,TGI,HCC-2998 colon,28 µM
same,TGI,SK-MEL-28 melanoma,24.4 µM
same,TGI,UO-31 renal,22.4 µM
same,TGI,786-0 renal,78.2 µM
same,TGI,NCI/ADR-RES ovarian,> 100 µM
same,TGI,MOLT-4 leukemia,11.2 µM
same,TGI,KM12 colon,22.2 µM
same,TGI,MDA-MB-435,24.4 µM
same,TGI,A549 NSCLC,51.5 µM
same,TGI,A498 renal,38.1 µM
same,TGI,MDA-N,> 100 µM
same,TGI,HT29 colon,16.9 µM
same,TGI,HCT-15 colon,29.6 µM
same,TGI,NCI-H460 lung,64.4 µM
same,TGI,ACHN renal,38.3 µM
same,TGI,M14 melanoma,29 µM
same,TGI,TK-10 renal,86.1 µM
same,TGI,PC-3 prostate,29.5 µM
same,TGI,HCT-116 colon,14.9 µM
same,TGI,SW-620 colon,23.7 µM
same,TGI,SNB-19 CNS,26.7 µM
same,TGI,K-562 leukemia,39.8 µM
same,TGI,LOX IMVI melanoma,35.1 µM
same,TGI,EKVX NSCLC,40.2 µM
same,TGI,NCI-H522 lung,21.6 µM
same,TGI,NCI-H226 lung,30.3 µM
same,TGI,COLO 205 colon,25.7 µM
same,TGI,BT-549 breast,11.6 µM
same,TGI,OVCAR-3 ovarian,15.3 µM
